Literature values in patent US20120195875A1, “DETECTION OF IMMUNE MODULATION RESULTING FROM REDUCED PROTEIN PHOSPHATASE 2A ACTIVITY” (CEDARS-SINAI MEDICAL CENTER, priority 2011, published 2012).

Key:
[1] = tested on: murine peritoneal macrophages

Row | SMILES | LPS-induced TNF-α, IL-1β, IFN-β, IP-10, IRF-1, and TNFR-2 release (macrophages) | LPS-induced macrophage responses (macrophages) | LPS tolerance ([1]; 1 h before the first or 16 h before the second LPS stimulation) | p38 phosphorylation ([1]; in response to primary LPS stimulation) | phosphorylation of ERK-1/ERK-2, JNK/SAPK and p38/SAPK-2 ([1]; in response to second LPS stimulation)
1 | COC[C@@H]([C@H](O)[C@H](O)C(=O)NCC[C@H](C)c1nc(/C=C/C[C@@H]2O[C@]3(C[C@@H](O)[C@@H]2C)O[C@H]([C@H](C[C@H](O)[C@H](C)[C@H](O)[C@H](C)/C=C(C)/C(C)=C/C=C/C(C)=C\C#N)OC)[C@H](OP(=O)(O)O)C3(C)C)co1)N(C)C [calyculin A] | inhibit | inhibits |  |  | 
2 | C=C1[C@@H](O)[C@@H]2O[C@]3(CC[C@H](/C=C/[C@@H](C)[C@@H]4CC(C)=C[C@@]5(O[C@H](C[C@@](C)(O)C(=O)O)CC[C@H]5O)O4)O3)CC[C@H]2O[C@@H]1[C@@H](O)C[C@H](C)[C@H]1O[C@@]2(CCCCO2)CC[C@H]1C [okadaic acid] |  |  | reversed LPS tolerance | inhibition | restored and prolonged
